Starred links: 1 amine or outer side, 2 acyl side, 3 side chain; linkers in the order of their positions; H or OH if unused. Positions of bridges follow the written chain, without caps; N, C: chain ends. Non-standard residues stand in square brackets, D forms with d. Residues, ends and D or L forms follow the SMILES beside them. ξ: configuration not given here. *: point of attachment. X41 = C[N+]1(CCCCCCCc2cn(-c3ccc(C[C@H](N[*:1])C(=O)[*:2])cc3)nn2)CCOCC1; X6 = C[N+](C)(C)CCCCCCCc1cn(-c2ccc(C[C@H](N[*:1])C(=O)[*:2])cc2)nn1; Me3N+(CH2)2O(CH2)2O(CH2)2CO = C[N+](C)(C)CCOCCOCCC(=O)*; Trp(7-Me) = Cc1cccc2c(C[C@H](N)C(=O)O)c[nH]c12; 2Nal = N[C@@H](Cc1ccc2ccccc2c1)C(=O)O; 3Pal = N[C@@H](Cc1cccnc1)C(=O)O; ξThr(3R) = C[C@@H](O)C(N)C(=O)O; Lys(Me) = CNCCCC[C@H](N)C(=O)O; Pen = CC(C)(S)[C@H](N)C(=O)O; Thp = NC1(C(=O)O)CCOCC1; X3 = C[N+](C)(C)CCCCC*; Sar = CNCC(=O)O
Experiments:
[1] = Exposed Polar Surface Area (EPSA); format: physicochemical; settings: SFC on Chirex 3014 column; sample 1 mM DMSO stock; read-out: EPSA
Outline: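 EPSA, in Å^2, is read from SFC retention time through a linear relationship established with eight calibration standards. Separation uses a Chirex 3014 stationary phase, 35 °C, 14 MPa back pressure, and a 5–60% methanol/ammonium formate modifier gradient in CO2.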

[2] = molecular target: T1, IL-23R (Homo sapiens, UniProt Q5VWK5); experiment: IL23R Reporter Assay; format: cell-based; settings: HEK293 cells containing IL-23R, IL-12RP1 and STAT-inducible firefly luciferase reporter; 10 ng/mL IL-23 (EC90); 5 h at 37° C.; read-out: IL23R Reporter Assay
T1 construct: host or cells: HEK293
T1 sequence (Q5VWK5 24-629): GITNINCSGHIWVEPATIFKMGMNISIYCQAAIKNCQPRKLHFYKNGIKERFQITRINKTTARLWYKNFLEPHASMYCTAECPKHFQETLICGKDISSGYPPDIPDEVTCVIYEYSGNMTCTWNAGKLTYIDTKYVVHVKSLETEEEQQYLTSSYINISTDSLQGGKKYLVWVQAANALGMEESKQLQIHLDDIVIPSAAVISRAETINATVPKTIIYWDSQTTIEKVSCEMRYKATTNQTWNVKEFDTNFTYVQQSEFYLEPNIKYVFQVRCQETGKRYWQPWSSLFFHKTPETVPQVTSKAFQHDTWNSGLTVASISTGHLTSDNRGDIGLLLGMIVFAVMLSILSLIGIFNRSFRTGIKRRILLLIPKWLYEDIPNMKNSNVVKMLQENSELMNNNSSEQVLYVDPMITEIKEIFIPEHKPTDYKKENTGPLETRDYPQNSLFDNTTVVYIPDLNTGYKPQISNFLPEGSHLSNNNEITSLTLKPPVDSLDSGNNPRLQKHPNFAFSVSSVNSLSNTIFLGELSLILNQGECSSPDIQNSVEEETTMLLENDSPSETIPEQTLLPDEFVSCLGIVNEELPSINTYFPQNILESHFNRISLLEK

| Compound | EPSA [1] | IC50 [2] |
| --- | --- | --- |
| CC(=O)N(C)CCCC[C@@H]1NC(=O)[C@H](Cc2c[nH]c3c(C)cccc23)NC(=O)[C@H]([C@@H](C)O)NC(=O)[C@H](CC(=O)N(C)C)NC(=O)[C@@H](NC(=O)CCOCCOCC[N+](C)(C)C)C(C)(C)SSC(C)(C)[C@@H](C(=O)N[C@@H](Cc2ccc(-n3cc(CCCCCCC[N+]4(C)CCOCC4)nn3)cc2)C(=O)N[C@@H](Cc2ccc3ccccc3c2)C(=O)NC2(C(=O)N[C@@H](CCCCN(C)C(C)=O)C(=O)N[C@@H](CC(N)=O)C(=O)N[C@@H](Cc3cccnc3)C(=O)N(C)CC(=O)N(C)C)CCOCC2)NC1=O [compound 479, cPEG3aCO-Pen(3)-N(N(Me)2)-T-7MeW-K(NMeAc)-Pen(3)-F(4TzIMMo7)-2Nal-THP-K(NMeAc)-N-3Pya-Sar-CON(Me)2] ({Me3N+(CH2)2O(CH2)2O(CH2)2CO}-[Pen]D(NMe2)T[Trp(7-Me)][Lys(Me)](Ac)[Pen][X41][2Nal][Thp][Lys(Me)](Ac)N[3Pal][Sar]-NMe2; disulfide 1-6) | 158 A^2 | 3.4 nM |
| CC(=O)N(C)CCCC[C@@H]1NC(=O)[C@H](Cc2c[nH]c3c(C)cccc23)NC(=O)[C@H]([C@@H](C)O)NC(=O)[C@H](CC(=O)N(C)C)NC(=O)[C@@H](NC(=O)CCOCCOCC[N+](C)(C)C)CSSC[C@@H](C(=O)N[C@@H](Cc2ccc(OCCCCC[N+](C)(C)C)cc2)C(=O)N[C@@H](Cc2ccc3ccccc3c2)C(=O)NC2(C(=O)N[C@@H](CCCCN(C)C(C)=O)C(=O)N[C@@H](CC(N)=O)C(=O)N[C@@H](Cc3cccnc3)C(=O)N(C)CC(=O)N(C)C)CCOCC2)NC1=O [compound 483, cPEG3aCO-C(3)-N(N(Me)2)-T-7MeW-K(NMeAc)-C(3)-TMAPF-2Nal-THP-K(NMeAc)-N-3Pya-Sar-CON(Me)2] ({Me3N+(CH2)2O(CH2)2O(CH2)2CO}-CD(NMe2)T[Trp(7-Me)][Lys(Me)](Ac)CY(X3)[2Nal][Thp][Lys(Me)](Ac)N[3Pal][Sar]-NMe2; disulfide 1-6) | 165 A^2 | 3.8 nM |
| CC(=O)N(C)CCCC[C@@H]1NC(=O)[C@H](Cc2c[nH]c3c(C)cccc23)NC(=O)[C@H]([C@@H](C)O)NC(=O)[C@H](CC(=O)N(C)C)NC(=O)[C@@H](NC(=O)CCOCCOCC[N+](C)(C)C)C(C)(C)SSC(C)(C)[C@@H](C(=O)N[C@@H](Cc2ccc(OCCCCC[N+](C)(C)C)cc2)C(=O)N[C@@H](Cc2ccc3ccccc3c2)C(=O)NC2(C(=O)N[C@@H](CCCCN(C)C(C)=O)C(=O)N[C@@H](CC(N)=O)C(=O)N[C@@H](Cc3cccnc3)C(=O)N(C)CC(=O)N(C)C)CCOCC2)NC1=O [compound 484, cPEG3aCO-C(3)-N(N(Me)2)-T-7MeW-K(NMeAc)-Pen(3)-TMAPF-2Nal-THP-K(NMeAc)-N-3Pya-Sar-CON(Me)2] ({Me3N+(CH2)2O(CH2)2O(CH2)2CO}-[Pen]D(NMe2)T[Trp(7-Me)][Lys(Me)](Ac)[Pen]Y(X3)[2Nal][Thp][Lys(Me)](Ac)N[3Pal][Sar]-NMe2; disulfide 1-6) | 163 A^2 | 3.1 nM |
| CC(=O)N(C)CCCC[C@@H]1NC(=O)[C@H](Cc2c[nH]c3c(C)cccc23)NC(=O)[C@H]([C@@H](C)O)NC(=O)[C@H](CC(=O)N(C)C)NC(=O)[C@@H](NC(=O)CCOCCOCC[N+](C)(C)C)C(C)(C)SSC(C)(C)[C@@H](C(=O)N[C@@H](Cc2ccc(-n3cc(CCCCCCC[N+](C)(C)C)nn3)cc2)C(=O)N[C@@H](Cc2ccc3ccccc3c2)C(=O)NC2(C(=O)N[C@@H](CCCCN(C)C(C)=O)C(=O)N[C@@H](CC(N)=O)C(=O)N[C@@H](Cc3cccnc3)C(=O)N(C)CC(=O)N(C)C)CCOCC2)NC1=O [compound 486, cPEG3aCO-Pen(3)-N(N(Me)2)-T-7MeW-K(NMeAc)-Pen(3)-F(4TzlTMA7)-2Nal-THP-K(NMeAc)-N-3Pya-Sar-CON(Me)2] ({Me3N+(CH2)2O(CH2)2O(CH2)2CO}-[Pen]D(NMe2)T[Trp(7-Me)][Lys(Me)](Ac)[Pen][X6][2Nal][Thp][Lys(Me)](Ac)N[3Pal][Sar]-NMe2; disulfide 1-6) | 164 A^2 | 4.4 nM |
| CC(=O)N(C)CCCC[C@H](NC(=O)[C@H](CC(C)C)NC(=O)[C@H](Cc1ccc2ccccc2c1)NC(=O)[C@H](Cc1ccc(OCCCCC[N+](C)(C)C)cc1)NC(=O)[C@H]1NC(=O)[C@H](CCCCN(C)C(C)=O)NC(=O)[C@H](Cc2c[nH]c3c(C)cccc23)NC(=O)C([C@@H](C)O)NC(=O)[C@H](CC(=O)N(C)C)NC(=O)[C@@H](NC(=O)CCOCCOCC[N+](C)(C)C)C(C)(C)SSC1(C)C)C(=O)N[C@@H](CC(N)=O)C(=O)N[C@@H](Cc1cccnc1)C(=O)N(C)CC(=O)N(C)C (stereo partly drawn) [compound 487, cPEG3aCO-Pen(3)-N(N(Me)2)-T-7MeW-K(NMeAc)-Pen(3)-TMAPf-2Nal-L-K(NMeAc)-N-3Pya-Sar-CON(Me)2] ({Me3N+(CH2)2O(CH2)2O(CH2)2CO}-[Pen]D(NMe2)[ξThr(3R)][Trp(7-Me)][Lys(Me)](Ac)[Pen]Y(X3)[2Nal]L[Lys(Me)](Ac)N[3Pal][Sar]-NMe2; disulfide 1-6) | 164 A^2 | 3.4 nM |
| CC(=O)N(C)CCCC[C@H](NC(=O)[C@H](C)NC(=O)[C@H](Cc1ccc2ccccc2c1)NC(=O)[C@H](Cc1ccc(OCCCCC[N+](C)(C)C)cc1)NC(=O)[C@H]1NC(=O)[C@H](CCCCN(C)C(C)=O)NC(=O)[C@H](Cc2c[nH]c3c(C)cccc23)NC(=O)C([C@@H](C)O)NC(=O)[C@H](CC(=O)N(C)C)NC(=O)[C@@H](NC(=O)CCOCCOCC[N+](C)(C)C)C(C)(C)SSC1(C)C)C(=O)N[C@@H](CC(N)=O)C(=O)N[C@@H](Cc1cccnc1)C(=O)N(C)CC(=O)N(C)C (stereo partly drawn) [compound 488, cPEG3aCO-Pen(3)-N(N(Me)2)-T-7MeW-K(NMeAc)-Pen(3)-TMAPf-2Nal-A-K(NMeAc)-N-3Pya-Sar-CON(Me)2] ({Me3N+(CH2)2O(CH2)2O(CH2)2CO}-[Pen]D(NMe2)[ξThr(3R)][Trp(7-Me)][Lys(Me)](Ac)[Pen]Y(X3)[2Nal]A[Lys(Me)](Ac)N[3Pal][Sar]-NMe2; disulfide 1-6) | 165 A^2 | 5.7 nM |
| CC(=O)N(C)CCCC[C@H](NC(=O)C1(NC(=O)[C@H](Cc2ccc3ccccc3c2)NC(=O)[C@H](Cc2ccc(OCCCCC[N+](C)(C)C)cc2)NC(=O)[C@H]2NC(=O)[C@H](CC(C)C)NC(=O)[C@H](Cc3c[nH]c4c(C)cccc34)NC(=O)[C@H]([C@@H](C)O)NC(=O)[C@H](CC(=O)N(C)C)NC(=O)[C@@H](NC(=O)CCOCCOCC[N+](C)(C)C)C(C)(C)SSC2(C)C)CCOCC1)C(=O)N[C@@H](CC(N)=O)C(=O)N[C@@H](Cc1cccnc1)C(=O)N(C)CC(=O)N(C)C [compound 489, cPEG3aCO-Pen(3)-N(N(Me)2)-T-7MeW-L-Pen(3)-TMAPF-2Nal-THP-K(NMeAc)-N-3Pya-Sar-CON(Me)2] ({Me3N+(CH2)2O(CH2)2O(CH2)2CO}-[Pen]D(NMe2)T[Trp(7-Me)]L[Pen]Y(X3)[2Nal][Thp][Lys(Me)](Ac)N[3Pal][Sar]-NMe2; disulfide 1-6) | 164 A^2 | 3.7 nM |
| CC(=O)NCCCC[C@@H]1NC(=O)[C@H](Cc2c[nH]c3c(C)cccc23)NC(=O)[C@H]([C@@H](C)O)NC(=O)[C@H](CC(N)=O)NC(=O)[C@@H](NC(=O)COCCOCCNC(=O)COCCOCCNC(=O)CCCc2ccc(I)cc2)C(C)(C)SSC(C)(C)[C@@H](C(=O)N[C@@H](Cc2ccc(OCCCCC[N+](C)(C)C)cc2)C(=O)N[C@@H](Cc2ccc3ccccc3c2)C(=O)NC2(C(=O)N[C@@H](CCCCNC(C)=O)C(=O)N[C@@H](CC(N)=O)C(=O)N[C@@H](Cc3cccnc3)C(=O)N(C)CC(N)=O)CCOCC2)NC1=O [compound 491, IPBPEG2PEG2CO-Pen(3)-N-T-7MeW-K(Ac)-Pen(3)-TMAPF-2Nal-THP-K(Ac)-N-3Pya-Sar-CONH2] | 168 A^2 | 8.3 nM |
| CC(=O)N(C)CCCC[C@H](NC(=O)C1(NC(=O)[C@H](Cc2ccc3ccccc3c2)NC(=O)[C@H](Cc2ccc(OCCCCC[N+](C)(C)C)cc2)NC(=O)[C@H]2NC(=O)[C@H](C)NC(=O)[C@H](Cc3c[nH]c4c(C)cccc34)NC(=O)[C@H]([C@@H](C)O)NC(=O)[C@H](CC(=O)N(C)C)NC(=O)[C@@H](NC(=O)CCOCCOCC[N+](C)(C)C)C(C)(C)SSC2(C)C)CCOCC1)C(=O)N[C@@H](CC(N)=O)C(=O)N[C@@H](Cc1cccnc1)C(=O)N(C)CC(=O)N(C)C [compound 492, cPEG3aCO-Pen(3)-N(N(Me)2)-T-7MeW-A-Pen(3)-TMAPF-2Nal-THP-K(NMeAc)-N-3Pya-Sar-CON(Me)2] ({Me3N+(CH2)2O(CH2)2O(CH2)2CO}-[Pen]D(NMe2)T[Trp(7-Me)]A[Pen]Y(X3)[2Nal][Thp][Lys(Me)](Ac)N[3Pal][Sar]-NMe2; disulfide 1-6) | 165 A^2 | 6.4 nM |
